Conditions: Hot wire method

C=C(F)C(F)(F)F [2,3,3,3-tetrafluoro-1-propene]
Conditions | thermal conductivity [W/m/K]
261.41 K, 6311 kPa, Liquid | 0.07964
261.48 K, 992 kPa, Liquid | 0.07655
261.48 K, 996 kPa, Liquid | 0.07656
261.5 K, 6309 kPa, Liquid | 0.07953
261.84 K, 987 kPa, Liquid | 0.07643
261.85 K, 6313 kPa, Liquid | 0.07948
261.87 K, 11445 kPa, Liquid | 0.08189
261.88 K, 21642 kPa, Liquid | 0.0867
261.96 K, 983 kPa, Liquid | 0.07514
261.97 K, 1005 kPa, Liquid | 0.07519
261.97 K, 6311 kPa, Liquid | 0.07846
261.97 K, 11446 kPa, Liquid | 0.0813
261.98 K, 21635 kPa, Liquid | 0.08614
262.35 K, 11445 kPa, Liquid | 0.08085
262.35 K, 16435 kPa, Liquid | 0.08308
262.35 K, 21632 kPa, Liquid | 0.08538
262.36 K, 6309 kPa, Liquid | 0.0784
262.37 K, 990 kPa, Liquid | 0.0754
262.38 K, 999 kPa, Liquid | 0.07563
262.48 K, 21630 kPa, Liquid | 0.08542
262.49 K, 11446 kPa, Liquid | 0.08082
262.49 K, 16441 kPa, Liquid | 0.08301
262.51 K, 984 kPa, Liquid | 0.07532
262.51 K, 6308 kPa, Liquid | 0.07834
262.53 K, 1003 kPa, Liquid | 0.0754
262.87 K, 94 kPa, Gas | 0.01103
262.87 K, 141 kPa, Gas | 0.01112
262.87 K, 180 kPa, Gas | 0.01121
262.87 K, 21632 kPa, Liquid | 0.08568
262.89 K, 16441 kPa, Liquid | 0.0831
262.9 K, 11444 kPa, Liquid | 0.08074
262.93 K, 6308 kPa, Liquid | 0.07833
262.95 K, 981 kPa, Liquid | 0.07547
262.97 K, 1000 kPa, Liquid | 0.07554
263.04 K, 21629 kPa, Liquid | 0.08528
263.06 K, 16439 kPa, Liquid | 0.0831
263.08 K, 11447 kPa, Liquid | 0.08051
263.1 K, 94 kPa, Gas | 0.01092
263.1 K, 139 kPa, Gas | 0.01099
263.1 K, 178 kPa, Gas | 0.01109
263.11 K, 6306 kPa, Liquid | 0.07818
263.14 K, 981 kPa, Liquid | 0.07525
263.15 K, 1006 kPa, Liquid | 0.07526
263.3 K, 186 kPa, Gas | 0.01073
263.33 K, 145 kPa, Gas | 0.01079
263.34 K, 176 kPa, Gas | 0.01103
263.35 K, 137 kPa, Gas | 0.01093
263.36 K, 94 kPa, Gas | 0.01083
263.41 K, 93 kPa, Gas | 0.01084
263.45 K, 21625 kPa, Liquid | 0.0853
263.47 K, 16441 kPa, Liquid | 0.08318
263.51 K, 11446 kPa, Liquid | 0.08071
263.55 K, 6310 kPa, Liquid | 0.07796
263.59 K, 977 kPa, Liquid | 0.0751
263.61 K, 184 kPa, Gas | 0.01083
263.61 K, 1002 kPa, Liquid | 0.07516
263.65 K, 21628 kPa, Liquid | 0.08509
263.66 K, 143 kPa, Gas | 0.01082
263.68 K, 16436 kPa, Liquid | 0.08284
263.72 K, 11448 kPa, Liquid | 0.08052
263.76 K, 94 kPa, Gas | 0.01087
263.77 K, 6312 kPa, Liquid | 0.07776
263.83 K, 978 kPa, Liquid | 0.07472
263.83 K, 1003 kPa, Liquid | 0.0748
263.97 K, 181 kPa, Gas | 0.01086
264.03 K, 141 kPa, Gas | 0.01087
264.1 K, 21626 kPa, Liquid | 0.08524
264.13 K, 94 kPa, Gas | 0.01089
264.14 K, 16440 kPa, Liquid | 0.08287
264.18 K, 11446 kPa, Liquid | 0.08043
264.33 K, 21622 kPa, Liquid | 0.08504
264.34 K, 179 kPa, Gas | 0.01089
264.38 K, 16435 kPa, Liquid | 0.08267
264.41 K, 140 kPa, Gas | 0.01091
264.42 K, 11443 kPa, Liquid | 0.08017
264.55 K, 94 kPa, Gas | 0.01091
264.75 K, 177 kPa, Gas | 0.01092
264.83 K, 138 kPa, Gas | 0.01094
264.99 K, 94 kPa, Gas | 0.01095
271.81 K, 106 kPa, Gas | 0.01176
271.82 K, 144 kPa, Gas | 0.01183
271.83 K, 200 kPa, Gas | 0.01195
272.04 K, 105 kPa, Gas | 0.01163
272.04 K, 200 kPa, Gas | 0.01186
272.05 K, 143 kPa, Gas | 0.0117
272.22 K, 246 kPa, Gas | 0.01157
272.22 K, 271 kPa, Gas | 0.01155
272.24 K, 200 kPa, Gas | 0.01151
272.28 K, 200 kPa, Gas | 0.01178
272.29 K, 104 kPa, Gas | 0.01154
272.29 K, 148 kPa, Gas | 0.01151
272.3 K, 141 kPa, Gas | 0.01161
272.34 K, 108 kPa, Gas | 0.01153
272.5 K, 272 kPa, Gas | 0.01161
272.54 K, 200 kPa, Gas | 0.01154
272.6 K, 146 kPa, Gas | 0.01157
272.67 K, 107 kPa, Gas | 0.01162
272.83 K, 272 kPa, Gas | 0.0116
272.84 K, 263 kPa, Gas | 0.01161

Conditions | thermal conductivity [W/m/K]
263.15 K, Liquid | 0.07493

From the NIST ThermoML archive (doi:10.1021/je200811n)
